The data set relates to Human gingival fibroblasts (HGF-1). As to the kind of experiment: In vitro cytotoxicity (MTS) of PAMAM scaffolds. Format: cell-based. How it is done: The toxicity of the PAMAM scaffolds to human gingival fibroblasts (HGF-1) was evaluated after 2 and 24 h exposure times. Human gingival fibroblasts (HGF-1) were grown in FibroLife fibroblast serum-free media, and incubated in 5 vol % CO2 under humidified conditions at 37° C. The cells were trypsinized at 80% confluency and seeded into tissue culture-treated polystyrene 96-well plates at a density of 10^4 cells/well. The plates were incubated for an additional 24 h at 37° C. The supernatant was aspirated and replaced with 100 μL of fresh growth medium containing various concentrations of PAMAM scaffolds. After two incubation time points (i.e., 2 and 24 h) at 37° C., the supernatant was aspirated, and the cells were washed with DPBS. A 100 μL solution of media/MTS/PMS (105/20/1, v/v/v) solution was added to each well, and incubated for 3 h at 37° C. The absorbance of the colored supernatant was quantified at 490 nm using a Thermoscientific Multiskan EX plate reader (Waltham, MA). Measurements for untreated cells (control) and media/MTS/PMS mixture (blank) were also collected. Results were expressed as percentage of relative cell viability as follows: % cell viability=[(Abs490−Absblank)□/(Abscontrol−Absblank)]×100% (Eq. 1)
A killing curve was constructed for NO-releasing and control PAMAM scaffolds by plotting % cell viability versus concentration (mg mL^−).

The values that follow come from US12460050B2, “Nitric oxide-releasing hyperbranched compounds as antibacterial scaffolds and methods pertaining thereto” (The University of North Carolina at Chapel Hill, priority 2017, dated 2025).

Take Hyperbranched polyamidoamine [h-PAMAM]: the “toxicity to HGF-1 (in words)” value is “most toxic”.
